From the CheMixHub ionic liquid set
± gives the uncertainty stated by the source.

Experiment: xn = mol fraction of the nth substance listed
Conditions: 100 kPa

CCCCCCCCO + CCCC[n+]1ccn(C)c1.O=S(=O)([N-]S(=O)(=O)C(F)(F)F)C(F)(F)F
Conditions	electrical conductivity, x2 = 0.03335 [S/m]	viscosity, x2 = 0 [mPa·s]	viscosity, x2 = 0.8499 [mPa·s]	viscosity, x2 = 0.8986 [mPa·s]
294.5 K	0.02 ± 0.01	–	–	–
298 K	–	7.614 ± 0.083	37.77 ± 0.89	40.18 ± 0.98

Nc1ccccc1 + CCCC[n+]1ccn(C)c1.O=S(=O)([N-]S(=O)(=O)C(F)(F)F)C(F)(F)F
viscosity [mPa·s]
Conditions	288.15 K	293.15 K	298.15 K	303.15 K	308.15 K	313.15 K	318.15 K	323.15 K	328.15 K	333.15 K
x1 = 0.1	66.3 ± 2.9	52.2 ± 2.3	42.1 ± 1.9	34.3 ± 1.5	28.6 ± 1.3	23.9 ± 1.1	20.44 ± 0.91	17.56 ± 0.78	15.22 ± 0.68	13.34 ± 0.59
x1 = 0.2	55.9 ± 2.5	44.1 ± 2	35.9 ± 1.6	29.3 ± 1.3	24.5 ± 1.1	20.59 ± 0.91	17.66 ± 0.78	15.22 ± 0.67	13.24 ± 0.59	11.63 ± 0.52
x1 = 0.3029	46.5 ± 2.1	36.8 ± 1.6	30.1 ± 1.3	24.7 ± 1.1	20.77 ± 0.92	17.48 ± 0.77	15.05 ± 0.67	13.02 ± 0.58	11.36 ± 0.5	10.01 ± 0.44
x1 = 0.4013	38.5 ± 1.7	30.6 ± 1.4	25.1 ± 1.1	20.73 ± 0.92	17.48 ± 0.77	14.76 ± 0.65	12.76 ± 0.57	11.06 ± 0.49	9.68 ± 0.43	8.56 ± 0.38
x1 = 0.5024	31.1 ± 1.4	24.8 ± 1.1	20.42 ± 0.9	16.98 ± 0.75	14.38 ± 0.64	12.17 ± 0.54	10.57 ± 0.47	9.19 ± 0.41	8.08 ± 0.36	7.16 ± 0.32
x1 = 0.6002	24.6 ± 1.1	19.71 ± 0.87	16.28 ± 0.72	13.64 ± 0.6	11.58 ± 0.51	9.84 ± 0.44	8.59 ± 0.38	7.5 ± 0.33	6.61 ± 0.29	5.88 ± 0.26
x1 = 0.7	18.38 ± 0.81	14.86 ± 0.66	12.4 ± 0.55	10.47 ± 0.46	8.92 ± 0.4	7.61 ± 0.34	6.68 ± 0.3	5.86 ± 0.26	5.19 ± 0.23	4.64 ± 0.2
x1 = 0.8002	13.46 ± 0.6	10.93 ± 0.48	9.22 ± 0.41	7.8 ± 0.34	6.71 ± 0.3	5.77 ± 0.26	5.09 ± 0.22	4.5 ± 0.2	4 ± 0.18	3.59 ± 0.16
x1 = 0.9	8.74 ± 0.39	7.19 ± 0.32	6.1 ± 0.27	5.2 ± 0.23	4.5 ± 0.2	3.9 ± 0.17	3.46 ± 0.15	3.08 ± 0.14	2.76 ± 0.12	2.48 ± 0.11
x1 = 1	5.32 ± 0.23	4.41 ± 0.19	3.74 ± 0.16	3.2 ± 0.14	2.78 ± 0.12	2.45 ± 0.11	2.159 ± 0.096	1.927 ± 0.085	1.738 ± 0.077	1.577 ± 0.07
